Results published in publication PMC8760490, “Discovery of novel furanylbenzamide inhibitors that target oncogenic tyrosine phosphatase SHP2 in leukemia cells” (The Journal of Biological Chemistry, 2021).

Biological target: T1, PTP1B (1–300) catalytic domain (Homo sapiens, UniProt P18031)
T1 construct: Recombinant human PTP1B (1–300); His tag (pET-15b) (N); made in house; host or cells: E. coli BL21(DE3)
T1 sequence (P18031 1-300): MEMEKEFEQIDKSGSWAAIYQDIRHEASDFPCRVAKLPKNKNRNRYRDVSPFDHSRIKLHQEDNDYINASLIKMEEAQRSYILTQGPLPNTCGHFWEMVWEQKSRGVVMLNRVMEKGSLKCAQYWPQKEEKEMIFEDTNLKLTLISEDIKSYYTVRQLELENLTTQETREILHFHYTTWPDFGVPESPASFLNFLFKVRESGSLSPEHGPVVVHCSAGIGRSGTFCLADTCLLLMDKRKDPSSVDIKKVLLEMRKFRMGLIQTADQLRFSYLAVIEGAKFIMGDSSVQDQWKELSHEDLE
Assay: DiFMUP phosphatase inhibition assay, PTP1B
Assay type: biochemical
Conditions: for IC50: catalytic domain, DiFMUP at Km (25 μM); for selectivity for SHP2 over PTP1B: from IC50 values against catalytic domains
Description: Selectivity is one of the biggest challenges in PTP inhibitor development. […] Similar to SHP2, we adapted a 384-well plate format DiFMUP assay for recombinant PTP1B and STEP and performed Michaelis–Menten experiments to determine DiFMUP Km values for each phosphatase. IC50 values of our inhibitors for PTP1B and STEP were determined in 10-point dose–response assays with DiFMUP used at the concentration corresponding to the respective Km value. […] Other inhibitors with good relative selectivity for SHP2 included SBI-4668 (13-fold selective over PTP1B; 73-fold selective over STEP) and SBI-3404 (fivefold selective over PTP1B; >71-fold selective over STEP).
Recombinant human full-length SHP2 (1–594) WT and E76K mutants, as well as the SHP2cat (248–527), were expressed and purified as described before ([36], [41]). Recombinant human PTP1B (1–300) and the codon-optimized STEP (280–566) catalytic domains were cloned into PET-15b and expressed as N-His-tagged fusion proteins. For expression, transformed BL21(DE3) cells were grown and induced similar as described for SHP2. Collected cells were resuspended in lysis buffer (25 mM Tris, pH 7.5, 300 mM NaCl, 50 mM imidazole, and 10% glycerol) with 100 mg/l RNaseA and were lysed with two passages using a microfluidizer. The lysate was clarified by centrifugation at 15,000g for 50 min and applied to nickel–nitrilotriacetic acid resin. The column resin was washed, and the PTP1B or STEP protein was eluted in lysis buffer at 300 mM imidazole. The PTP1B or STEP protein was further purified by S75 size-exclusion chromatography in 50 mM Tris, pH 7.5, 50 mM NaCl. The eluted peak fractions were supplemented with tris(2-carboxyethyl)phosphine to 10 mM, concentrated by ultrafiltration, and stored at −80 °C. The purified yield of PTP1B was 33 mg/l cell culture; the yield of STEP was 16 mg/l cell culture.
SHP2 inhibitors were tested at RT in a 384-well plate format standard phosphatase fluorescence intensity assay using DiFMUP (Invitrogen/Thermo Fisher Scientific) as a substrate and a total reaction volume of 25 μl. SHP2 inhibitors or vehicle (DMSO) were spotted in triplicate into a black Greiner FLUOTRAC 200 384-well microplate (catalog no.: 781076; Greiner) for a 10-point dose–response assay using an Echo 555 Liquid Handler (Labcyte, Inc). PTP working solutions were prepared at a 0.625 nM concentration (for a final concentration of 0.5 nM) in buffer containing 50 mM Bis–Tris, pH 6.0, 50 mM NaCl, 5 mM DTT, and 0.01% Tween-20. Prior to the assay, a dually phosphorylated IRS-1 peptide (625 nM [500 nM final] ([30])) was added to full-length WT SHP2 working solutions and incubated for 20 min. DiFMUP working solutions at 5× final concentration were prepared in 50 mM Bis–Tris, pH 6.0, 50 mM NaCl, and 0.01% Tween-20. About 20 μl of PTP working solution was dispensed into the microplate and incubated with inhibitor for 20 min at RT. […] The reaction was initiated by addition of 5 μl DiFMUP working solutions. Fluorescence intensity was measured in kinetic mode (every minute for 7 or 10 min) using a Tecan Spark Multimode Microplate Reader (Tecan) with an excitation wavelength of 360 nm and an emission wavelength of 460 nm. The initial rates were determined from the linear progression curves of the PTP reaction. The nonenzymatic hydrolysis of the substrate was corrected by using a control without addition of enzyme. IC50 values were calculated from the corrected initial rates by nonlinear regression using the program GraphPad Prism, version 8 (GraphPad Software, Inc) software. Dose–response inhibition assays of SHP2cat using the substrate OMFP were performed similarly as described previously for DiFMUP. OMFP was used at a concentration corresponding to its Km value for SHP2cat (50 μM final). Fluorescence intensity was measured in kinetic mode (every minute for 10 min) using a Tecan Spark Multimode Microplate Reader with an excitation wavelength of 485 nm and an emission wavelength of 535 nm. […]

For `Nc1ccc(NC(=O)c2cc(-c3ccc(/C=C4\Sc5ccccc5C4=O)o3)ccc2O)cc1` [SBI-2130, (Z)-N-(4-Aminophenyl)-2-hydroxy-5-(5-((3-oxobenzo[b]thiophen-2(3H)-ylidene)methyl)furan-2-yl)benzamide], the IC50 was 6.8 µM and the “selectivity for SHP2 over PTP1B” value was 31 fold.
In the case of `O=C1CCCC1=Cc1ccc(-c2ccc(O)c(C(=O)Nc3ccccc3)c2)o1` [SBI-3192, 2-Hydroxy-5-(5-((2-oxocyclopentylidene)methyl)furan-2-yl)-N-phenylbenzamide], the IC50 is reported as 1.9 µM.
In the case of `N#Cc1cc(-c2ccc(/C=C3\Sc4ccccc4C3=O)o2)ccc1O` [SBI-3404, (Z)-2-Hydroxy-5-(5-((3-oxobenzo[b]thiophen-2(3H)-ylidene)methyl)furan-2-yl)benzonitrile], the IC50 is reported as 7.4 µM and the “selectivity for SHP2 over PTP1B” value is reported as “fivefold”.
For `O=C1/C(=C/c2ccc(-c3ccc(O)c(-c4nn[nH]n4)c3)o2)Sc2ccccc21` [SBI-3405, (Z)-2-((5-(4-Hydroxy-3-(2H-tetrazol-5-yl)phenyl)furan-2-yl)methylene)benzo[b]thiophen-3(2H)-one], the IC50 was 5.3 µM.
`O=C(Nc1ccccc1)c1cc(-c2ccc(/C=C3\Sc4ccccc4C3=O)o2)ccc1O` [SBI-4668, (Z)-2-Hydroxy-5-(5-((3-oxobenzo[b]thiophen-2(3H)-ylidene)methyl)furan-2-yl)-N-phenylbenzamide] was tested, and the IC50 was 9.4 µM and the “selectivity for SHP2 over PTP1B” value was 13 fold.
